The test system of series [1] is PC12-HS cells. Briefly: Evaluation B: neurite-outgrowth action in presence of NGF. It counts as cell-based, rat.
Series [2] deals with PC12-HS cells. Briefly: Evaluation A: neurocyte (cell)-growth-promoting action, ALAMAR BLUE. It counts as cell-based, rat. Particulars: for Cell survival percentage (%): cell-growth promotion. How it is done:
Then, the effects of test samples were judged as follows:
The relative value of 140 to 199: Equivalent effect to that of NK-4, symbol (∘); The relative value of 200 or higher: Stronger effect than that of NK-4, symbol ([…]). • The results are in Table 6.
The relative fluorescent intensity of each well was determined by using the fluorescent intensity of each well with cells, which had been cultured by admixing with D-MEM medium containing 10% by volume of FBS without any of the compounds, and the intensity of the resulting culture was regarded as 100%. The results are expressed as cell survival percentages (%) in Table 9. […]
The test was conducted twice for each test sample in a triplicate manner and the data were averaged.
Seven compounds as in Table 17, NK-234, NK-26, NK-9815, NK-9694, NK-28 and NK-147 as well as NK-4, were each dissolved in DMSO to give a concentration of 5 mg/ml. […] The test was conducted twice for each test sample in a triplicate manner and the data were averaged.
Background: Resazurin is reduced to fluorescent resorufin, in cell work by metabolically active cells.

The subject of series [3] is ICR mice administered with amyloid β fragment. Description: Novel object recognition test, mouse administered with amyloid β fragment, agents of Example 1. It counts as in vivo. Further details: key: (novel − memorized seeking time)/(novel + memorized seeking time). As to conditions: agent of Example 1, 0.3 ml/head intraperitoneally once a day up to the 8th day. How it is done: (§1) One hundred and thirty ICR mice (commercialized by Charles Liver Laboratories Japan Inc., Kanagawa, Japan) were randomly divided into 13 groups, consisting of 10 mice in each group. Amyloid β fragment, represented by an amino acid sequence of SEQ ID NO: 1, used in Experiment 3 was aged at 37° C. for four days, and administered to the lateral ventricle of each mouse in an amount of 9 nmol/6 μl/mouse (the administration method is referred to “Brain Research”, Vol. 706, pp. 181-193 (1996)). […] The mice (10 heads) in the remaining one group were intraperitoneally administered with a sterilized 10% maltose solution (pyrogen-free) once a day up to the 8th day in an amount of 0.3 ml/mouse (control). On the 8th day after the administration, novel object recognition test (see, Japanese Patent Kokai No. 2008-193941) was performed and the average discrimination index (the ratio of prolonged seeking time for novel object to the total seeking time) as a cognitive function index were shown in Table 26. On the 9th day after the administration, the brain of the mice was anatomically isolated, prepared into tissue samples in conventional manner. Depositions of aggregation of amyloid fragment were observed by staining with Congo red or thioflavin T, and degeneration or defect of hippocampal pyramidal cells concerned with cognitive function. The degeneration or the defect of hippocampal pyramidal cells was evaluated by 4-point grade score, by regarding the condition of the control without administration of amyloid β fragment as “none (O)”, “slight (1)”, “moderate (2)”, and “sever (3)”, and the average scores of 10 mice are shown in Table 20.
An experiment apparatus (a glass box of 30 cm in depth, 45 cm in width, and 30 cm in height) and two kinds of objects to be memorized by mice were provided. On the day before the test, the mice were allowed to seek freely in the experiment apparatus with no seeking object for 10 minutes for acclimation. On the test day, the following test was performed twice at an interval of 60 minutes. In the first trial, the same two objects were placed in the apparatus at its both ends, and the mouse was allowed to seek freely for 10 minutes. On the second trial, one of the objects used in the first test was replaced with a different kind of object, and then the mouse was allowed to seek freely for five minutes. In each experiment, when the mouse brought its muffle close to the object within 1-cm apart from the object, or made its muffle or whiskers to contact with the object, the mouse was judged to have a seeking behavior, and the seeking time thereof was measured. The object discrimination index [={(seeking time for novel object)−(seeking time for memorized object)}/{(seeking time of novel object)+(seeking time of memorized object)}] was calculated. The object discrimination index means the ratio of an increased seeking time for novel object to the total seeking time, and the ratio becomes larger when the memory of the once sought object was more strongly held, and it becomes smaller when the memory was more weakly held.

Series [4] shares this test system. Briefly: Degeneration or defect of hippocampal pyramidal cells, mouse administered with amyloid β fragment, agents of Example 1. It counts as in vivo. As to conditions: 4-point grade score none (0) to severe (3), average of 10 mice; agent of Example 1, 0.3 ml/head intraperitoneally once a day up to the 8th day. How it is done:
as §1

The test system of the next series is microglia. Description: NO production from microglia in the presence of LPS. It counts as cell-based, rat. As to conditions: concrete data not shown.
For series [5], the system named is PC12-HS cells. Briefly: Cytotoxicity by amyloid β fragment, cell survival (Evaluation C). It counts as cell-based. Particulars: for Cell survival percentage (%): PC12-HS cells + amyloid β fragment. How it is done:
A plurality of peptide fragments (called “AMYLOID β FRAGMENT” commercialized by AnaSpec, Inc., CA, USA, each peptide having the amino acid sequence of SEQ ID NO:1), which have an amino acid sequence positioning from 25th to 35th from the N-terminus of amyloid R peptide with human origin and have been recognized as a main factor of neurocyte death in Alzheimer's disease, were diluted with phosphate buffered saline (PBS) to give a concentration of 2 mM, and used after being aged at 37° C. for six hours to coagulate them to increase their cytotoxicity before use. […] Viability (%) of cells in each well was determined and shown in Table 1 by calculating a relative value when the fluorescent intensity of the control was regarded as 100%. While, the supernatant of cell culture, which had been cultured under the same conditions as above, was removed, and the resulting cells were fixed by the addition of 1% by volume of glutaraldehyde, which had been prepared by diluting with PBS, in a volume of 100 μl/well for 30 min. Thereafter, the cells were stained with […] Hoechst 33258 dye commercialized by SIGMA Corporation, Tokyo, Japan, for five min, observed at a magnitude corresponding to a visual filed containing about 100 cells under a phase contrast microscope and a fluorescent microscope, and counted. The occupied percentage (%) of cells with apoptosis against the total cells in one visual field was calculated and the data was also shown in Table 1. The judgment of cells with apoptosis was made with an index of fragmentation of cell nuclei and chromatin aggregation within the nuclei.
Then, the effect of the above-compounds' concentrations on the cytotoxicity by amyloid β fragment was further investigated. The above 6-compounds and NK-4 were used as test samples, and the protective effects of these compounds against cytotoxicity by amyloid β fragment were evaluated by the same conditions as used in Evaluation C in Experiment 3, except for adding each compound to a well inoculated with PC12-HS cells to give a final concentration as shown in Table 7.

Where [6] appears, read: compound concentration 80 ng/ml.
Where [7] appears, read: compound concentration 400 ng/ml.
Setting [8] is: compound concentration 2000 ng/ml.
Where [9] appears, read: compound concentration 10000 ng/ml.
The mark [10] stands for this setting: final concentration of compound 200 ng/ml.
Where [11] appears, read: final concentration of compound 800 ng/ml.
[12] abbreviates: compound concentration 25 ng/ml.
Where [13] appears, read: compound concentration 50 ng/ml.
Setting [14] is: compound concentration 100 ng/ml.
Where [15] appears, read: compound concentration 200 ng/ml.

Marks after values point to notes of the source that are not given here.

Take `CCN1C=CC(=CC=C(C=Cc2cc[n+](CC)c3ccccc23)c2cc[n+](CC)c3ccccc23)c2ccccc21.[I-].[I-]` [NK-4]: the “Evaluation B: Neurite-outgrowth action” value in the series with PC12-HS cells [1] (50 μl of 400 ng/ml test sample solution per well + NGF final 5 ng/ml, 3 days) is “∘ (The test sample with a neurite outgrowth rate of 30% or higher was judged to be equivalent or more (∘) compared with NK-4)”. In addition, the “Action on neurite outgrowth (%)” value with PC12-HS cells [1] (setting [6]) came to 25 ± 9%; in the series on PC12-HS cells [1] (setting [7]) it was 35 ± 9%; in the series on PC12-HS cells [1] (setting [8]), 52 ± 4%; with PC12-HS cells [1] (setting [9]), 14 ± 6%. Also, the “Rate of cells exhibiting neurite outgrowth (%)” value was found to be 22 ± 8% in the series with PC12-HS cells [1] (setting [10]), 31 ± 14% in the series with PC12-HS cells [1] (final concentration of compound 400 ng/ml), 51 ± 3% in the series with PC12-HS cells [1] (setting [11]) and 49 ± 8% with PC12-HS cells [1] (final concentration of compound 1600 ng/ml). Besides, the “Cell survival percentage (%)” value in the series with PC12-HS cells [2] (final concentration 50 ng/ml) is reported as 154 ± 8%; with PC12-HS cells [2] (final concentration 200 ng/ml), 309 ± 68%; in the series with PC12-HS cells [2] (final concentration 800 ng/ml), 254 ± 54%; in the series on PC12-HS cells [2] (no compound = 100%, final concentration 12.5 ng/ml), 134 ± 8%; in the series with PC12-HS cells [5] (final concentration of compound 12.5 ng/ml), 34 ± 1%; in the series with PC12-HS cells [5] (final concentration of compound 50 ng/ml) it was 69 ± 7%. For the same compound, the entries for the “Cell survival percentage (%)” value in the series on PC12-HS cells [5] (setting [10]) and in the series on PC12-HS cells [5] (setting [11]) were 122 ± 32% and 89 ± 4%, respectively. Besides, the “Action of enhancing cell growth (%)” value in the series with PC12-HS cells [2] (setting [12]) is listed as 149 ± 20%; in the series with PC12-HS cells [2] (setting [13]), 181 ± 79%; in the series on PC12-HS cells [2] (setting [14]) it was 301 ± 65%; with PC12-HS cells [2] (setting [15]), 438 ± 48%. Besides, the “optimum concentration for exhibiting cell-growth-promoting action” value with PC12-HS cells [2] (from Table 9) worked out at 200 ng/mL. The Object discrimination index in series [3] is 0.1. Besides, in series [4], the “Degeneration/defluxion of hippocampal pyramidal cell” value amounted to 1.1. Moreover, the “suppressing NO production from microglia” value in the series on microglia is recorded as “actions of suppressing NO production”. The “Survibal percentage of cells when admixed with cytotoxic factor (%) Amyloid β fragment” value in the series with PC12-HS cells [5] (NK-4 200 ng/ml) was 129 ** %; in the series on PC12-HS cells [5] (NK-4 1000 ng/ml) it was 97 ** %; with PC12-HS cells [5] (NK-4 5000 ng/ml) it was 97 ** %; in the series on PC12-HS cells [5] (PC12-HS cells, 50 μM amyloid β fragment, 3 days, NK-4 40 ng/ml), 89 ** %. Also, the “minimum concentration exerting protection action against injury through amyloid β fragment” value in the series with PC12-HS cells [5] (PC12-HS cells) stood at 40 ng/mL.
As to `CCCCN1C=C/C(=C/C=C(/C=C/c2cc[n+](CCCC)c3ccccc23)c2cc[n+](CCCC)c3ccccc23)c2ccccc21` [NK-26], the “Action on neurite outgrowth (%)” value was 72 ± 4% with PC12-HS cells [1] (setting [6]), 71 ± 7% in the series on PC12-HS cells [1] (setting [7]), 25 ± 7% in the series with PC12-HS cells [1] (setting [8]) and 10< % in the series with PC12-HS cells [1] (setting [9]). For the same compound, the “Action of enhancing cell growth (%)” value with PC12-HS cells [2] (setting [12]) was determined as 275 ± 19%; in the series on PC12-HS cells [2] (setting [13]), 357 ± 35%; in the series with PC12-HS cells [2] (setting [14]), 210 ± 12%; in the series with PC12-HS cells [2] (setting [15]), 210 ± 12%. In series [3], the Object discrimination index is listed as 0.1. For the same compound, the “Degeneration/defluxion of hippocampal pyramidal cell” value in series [4] was 1.1. In addition, in the series on microglia, the “suppressing NO production from microglia” value was “actions of suppressing NO production”.
Consider `CCCN1C=CC(=CC=C(C=Cc2cc[n+](CCC)c3ccccc23)c2cc[n+](CCC)c3ccccc23)c2ccccc21.[I-].[I-]` [NK-234], for which the “Action on neurite outgrowth (%)” value in the series on PC12-HS cells [1] (setting [6]) is on record as 24 ± 7%; in the series on PC12-HS cells [1] (setting [7]), 57 ± 7%; with PC12-HS cells [1] (setting [8]), 61 ± 3%; with PC12-HS cells [1] (setting [9]) it was 66 ± 20%. Also, in the series on PC12-HS cells [2] (setting [12]), the “Action of enhancing cell growth (%)” value stood at 168 ± 45%. For the same compound, the “suppressing NO production from microglia” value with microglia was “actions of suppressing NO production”.
